Assay results as given in patent publication US20200030288A1, “STATIN FOR PREVENTION/REDUCTION OF ISCHEMIA-RELATED DAMAGE” (Fundacio Institut De Recerca De L'Hospial De La Santa Creu …, priority 2017, published 2020).

Columns and labels:
[1] = tested on: mouse model of myocardial ischemia; assay: Mouse coronary ligation model with AMPK inhibitor given before atorvastatin; type: in vivo, mice; details: Compound C 30 mg/kg i.p. prior to atorvastatin 0.3 mg/kg at 15 min of ischemia; 45 min ischemia
Procedure: (§1) Complete LAD coronary artery ligation was performed as follows. Male CH3 mice (8-10 weeks old, weighing 25-30 g) were intubated and anesthesized with a mixture of O2/isoflurane and mechanically ventilated (rate 90 breaths/min, tidal volume 0.1 mL). Rectal temperature was continuously monitored throughout the surgery and maintained within 37-38° C. using a heat pad and heat lamp. An anterior thoracotomy was performed; the heart was exposed and the LAD coronary artery was occluded with an intramural stitch (7-0 silk suture; consistent ligation of the left coronary artery as it emerges from under the left atrium) for 45 minutes. Success of complete coronary ligation was verified by electrocardiographic visualization of the ST-elevation-MI pattern that was monitored by high frequency ultrasounds with the Vevo2100 from Visualsonics and by the visualization of a pale, hypokinetic ventricle distal to the site of occlusion.
Infarct size was determined by morphometric analysis. […] Sections were stained with haematoxylin and eosin and morphometric infarct size analysis was determined using image analysis software (ImageJ, NIH). Infarct size was calculated by the sum of myocardial infarct areas between sections and expressed as a percentage of total LV wall. Three measurements per section were determined.
In addition, myocardial oxidative damage was also assessed. […]

[2] = tested on: pig model of ischemia and reperfusion; assay: Pig model of ischemia and reperfusion (hypercholesterolemic diet, 90 min occlusion, 2.5 h reperfusion); type: in vivo, pigs; details: 0.3 mg/kg i.v. after 75 min of ischemia
Procedure: Pigs were fed a hypercholesterolemic diet as in Example 11. After this 10-day diet period animals underwent a closed-chest 90 min mid-left anterior descending (LAD) coronary balloon occlusion. After 75 min of ischemia animals were randomized to intravenous infusion (femoral vein) of an active β-hydroxy acid derivative of simvastatin (R—OH—S; 0.3 mg/kg; n=12) or vehicle (0.9% NaCl; n=12). At minute 90, the balloon was deflated to achieve coronary artery reperfusion. Animals were reperfused for 2.5 h. Infarct size was determined morphometrically by Evan's Blue staining. To that end, 2.5 h post-reperfusion Evan's Blue dye was injected in the anesthetized pigs through the left atrium to outline the area-at-risk (AAR) after which the animals' hearts were arrested with potassium chloride and rapidly excised. Hearts were sectioned into 6 transverse slices parallel to the atrioventricular ring. Consecutive slices were alternatively collected for infarct size analysis (triphenyl tetrazolium chloride) and molecular studies of the ischemic and non-ischemic myocardium. Tissue samples obtained from the ischemic and non-ischemic myocardium all animals were pulverized and homogenized in Tripure® or lysis buffer for RNA and protein isolation, respectively. Protein levels of apoptosis markers (truncated-caspase-3) was assessed. Paraffin-embedded ischemic myocardial tissue of all animals was cut into 5-μm-thick slices for 8-hydroxyguanosine staining (Abcam ab48508), a measurement indicative of oxidative stress-induced DNA-damage, and OCT-embedded ischemic myocardial tissue of all animals was stained for neutrophil detection (anti-Neutrophil Elastase; Abcam). Staining was calculated by a single blinded observer from an average of 5-fields/animal as % of stained area. Images were captured by Nikon Eclipse 80i microscope and digitized by Retiga 1300i Fast camera. In addition, mitochondrial membrane potential (Δψm) was measured in the ischemic myocardium of all animals by flow cytometry using the ratiometric dye 5,5′,6,6′-tetrachloro-1,1′,3,3′-tetraethylbenzimidazol carbocyanine iodide (JC-1; Molecular Probes). Values were expressed as red fluorescence activity. Isolated mitochondria treated with valinomycin (Sigma), which decreases Δψm, were used as control (data not shown).

[3] = tested on: mouse model for myocardial ischemia; assay: Mouse model of myocardial ischemia by coronary ligation: infarct size and 8-OH-dG oxidative damage; type: in vivo, Male CH3 mice; details: single i.p. dose 15 min after coronary ligation, 45 min ischemia; for reduction of size of infarction (% of total LV wall): vs vehicle-control
Procedure: as §1
Ischemia was continued for another 30 min after administration of the single dose (i.e. altogether 45 min of ischemia), then mice were sacrificed and the heart was carefully excised for infarct size analysis.
Infarct size was determined by morphometric analysis. For this purpose, all mouse hearts were immersed in fixative solution (4% paraformaldehyde), embedded in OCT compound and cross-sectioned from apex to base (10 μm thick sections 200 μm distanced). Sections were stained with haematoxylin and eosin and morphometric infarct size analysis was determined using image analysis software (ImageJ, NIH). Infarct size was calculated by the sum of myocardial infarct areas between sections and expressed as a percentage of total LV wall. Three measurements per section were determined.
In addition, myocardial oxidative damage was also assessed. For this purpose, ischemic myocardial tissue was cut into 5-μm-thick slices for 8-OH-dG (Abcam ab48508) staining, a measurement indicative of oxidative stress-induced DNA-damage. Staining was calculated by a single blinded observer from an average of 5-fields/animal as % of stained area. Images were captured by Nikon Eclipse 80i microscope and digitized by Retiga 1300i Fast camera.

[4] = tested on: hypercholesterolemic pigs with myocardial ischemia; assay: Neutrophil infiltration (anti-Neutrophil Elastase staining) in ischemic myocardium of hypercholesterolemic pigs; type: in vivo; details: single i.v. dose 15 min after onset of ischemia, vs controls
Procedure: To this end, ischemic myocardial tissue of all hypercholesterolemic pigs included in Example 12 was obtained, embedded in OCT, and stained for neutrophils detection (anti-Neutrophil Elastase; Abcam). Staining was calculated by a single blinded observer from an average of 5-fields/animal as % of stained area. Images were captured by Nikon Eclipse 80i microscope and digitized by Retiga 1300i Fast camera.

[5] = tested on: hypercholesterolemic pigs with myocardial ischemia; assay: Hypercholesterolemic pigs, 90 min LAD balloon occlusion: early cardiac damage markers; type: in vivo; details: 0.3 mg/kg i.v. at 15 min of ischemia
Procedure: To this end, 14 pigs were fed for 10 days a Western-type hypercholesterolemic diet [20%-saturated fat (beef tallow), 2%-cholesterol, 1%-cholic acid]. This hyperlipidemic diet contains 24.82% proteins, 64.20%of carbohydrates, 10.98% of fats and 16,834.7 kJ.
After this 10 day diet period animals underwent a closed-chest 90 min mid-left anterior descending (LAD) coronary balloon occlusion and the same experimental design described in Example 1.

[6] = tested on: swine model of myocardial ischemia; details: 0.3 mg/kg i.v. at 15 min of ischemia
Source text: Cardiac rhythm, arterial oxymetry, and arterial pressure were continuously monitored during the procedure. Just before starting the procedure a perfusion of amiodarone and lidocaine was initiated as prophylaxis for malignant left ventricular arrhythmias. All animals of the study were subjected to the same antiarrhythmic pharmacological approach allowing a direct comparison between the groups. By percutaneous approach and fluoroscopy guidance ischemia was induced by complete coronary balloon occlusion of the mid-left anterior descending coronary artery. Contrast angiographies were performed to ensure total coronary occlusion.
Control animals were given intravenous placebo (saline) at 15 min of ischemia. Blood samples (serum) for further assessment of biomarkers of cardiac damage were taken at baseline (i.e. before MI induction or at time=0 min), and at 30 min, 60 min and 90 min after MI induction (ischemia).
Upon taking the 90 min blood sample, the pigs were sacrificed without reperfusion to obtain myocardial tissue for molecular studies and histology.
The concentration of IMA (Ischemic Modified Albumin), CFABP (Cardiac Fatty Acid Binding Protein) and Myoglobin was determined by the respective pig ELISA kits in the blood samples taken 30 min, 60 min and 90 min after MI induction and compared to their baseline values (prior to ischemia induction). These proteins were chosen based on the rationale that they are early markers for cardiac damage assessment due to ischemia.

[7] = tested on: TLR4, TF and MCP-1 in PBMC; assay: TLR4, TF and MCP-1 expression in circulating PBMC of ischemic pigs; type: in vivo
Procedure: Blood samples were also collected in EDTA at baseline (prior to ischemia) and after 90 min of ischemia from the femoral artery for PBMC isolation by the Ficoll method. To this end, 20 ml of blood were collected into EDTA tubes at three tested time-points (0, 30, and 90 min) in all animals. All blood samples were immediately subjected to Ficoll-paque Plus (Amersham Biosciences) density gradient centrifugation to isolate PBMCs. Samples were counted and then directly frozen in liquid nitrogen and stored at −80° C. until mRNA and protein isolation as described in Example 5 and Example 6. The mRNA expression level of the inflammatory markers related to innate immunity TLR4 (Toll-like receptor 4) and MCP-1, as well as […] (tissue factor) were determined by Real Time PCR analyses whereas protein expression of MCP-1 was also assessed. The threshold cycle (Ct) values were determined and normalized to the housekeeping gene 18SrRNA in order to adjust for equal amounts of RNA whereas Ponceau red was used for protein loading control.

MCP-1/CCL2 = MCP-1/CCL2 mRNA and protein expression in pig myocardium; type: in vivo, pigs
Procedure: The myocardium of pigs included in Example 1 and Example 2 was obtained, pulverized and processed with Tripure or lyses buffer for mRNA and protein isolation as detailed in Example 5 and Example 6, respectively. Both the mRNA levels and protein expression of MCP-1 were assessed. The threshold cycle (Ct) values were determined and normalized to the housekeeping gene 18 SrRNA in order to adjust for equal amounts of RNA whereas β-actin was used as protein loading control.

rat model for ischemia = assay: Rat model of myocardial infarction by coronary ligation: scar size 30 days after ischemia; type: in vivo, male SD rats; details: single dose 0.3 mg/kg 15 min after onset of ischemia; 30 days post-ischemia induction; vs vehicle-controls
Procedure: The study was performed in male SD rats (8-10 weeks old, weighing 250-300 g; Jackson Laboratory). MI was induced by LAD coronary artery ligation for 45 min. […] Afterwards hearts were carefully excised for morphometric assessment of infarct size.

RhoA = RhoA total and cytosolic/membrane fractions in ischemic myocardium by Western blot; type: in vivo, pigs
Procedure: After the ischemic period, the animals' hearts were arrested with potassium chloride and rapidly excised. […] In addition, the separation of the membrane and cytosolic fractions was performed by a modification of the lysis buffer protocol. Briefly, tissue powder was homogenized (1 mol/L NaCl, 20 mmol/L Tris pH 7.4, 1 mmol/L DTT and protease inhibitors) and centrifuged. The supernatant was collected (referred to as the cytosolic fraction) and pellets were resuspended, and the membrane proteins were extracted by incubation in 500 mmol/L Tris-HCl pH 7.4, 20% sodium dodecyl sulfate, 100 mmol/L sodium orthovanadate, and protease inhibitors. The extract was centrifuged and the supernatant was collected as the membrane fraction.
Protein concentration (in total myocardial tissue, in the cytoplasm fraction and in the membrane fraction) was quantified by the Pierce method. RhoA (Santa Cruz) was determined in total and cytosolic and membrane fractions of the ischemic cardiac tissue of all animals by Western Blot analysis. The intensity of the Western blot bands was detected with Chemi-Doc (Bio-Rad) and they were quantified with the Quantity one Software (Bio-Rad). Intensities are expressed in arbitrary units (AU).

AMPK = AMPK activation (P-AMPK Thr172 / total AMPK) in pig myocardium by Western blot; details: for levels of P-AMPK: vs controls
eNOS = eNOS activation (P-eNOS Ser1177 / total eNOS) in pig myocardium by Western blot; type: in vivo, pigs; details: ischemic myocardium
Source text: (P-eNOS) or activated eNOS.

caspase-3 = assay: Caspase-3 activation (cleaved / total caspase-3) in pig myocardium by Western blot; type: in vivo, pigs
Procedure: Myocardial tissue of all pigs included in Example 1 and Example 2 was obtained, pulverized and processed with lysis buffer for protein isolation as detailed in Example 6. Protein was quantified by the Pierce method and Western Blot analysis was performed to assess the levels of phosphorylated p53 (Ser15), total p53, cleaved caspase-3 and total caspase-3. The ratios phosphorylated p53/total p53 and cleaved Casp3/total caspase3 were calculated to ascertain how much of protein was activated.

[8] = ischemic myocardial tissue, 2.5 h reperfusion
[9] = 30, 60 and 90 min after MI induction, vs controls
[10] = 90 min ischemic period, vs absence of treatment
[11] = prior (0 min) or post (90 min) ischemic induction
[12] = ischemic myocardium, vs non-treated pigs

c1cc(-c2cnn3cc(-c4ccc(OCCN5CCCCC5)cc4)cnc23)ccn1 [Compound C]
effect on infarct size reduction achieved by atorvastatin [1]: abolished
effect on protection against oxidative damage (8-OHdG staining) [1]: abolished

CCC(C)(C)C(=O)OC1CC(C)C=C2C=CC(C)C(CCC(O)CC(O)CC(=O)O)C21 (stereo not drawn) [β-OH-simvastatin, β-hydroxy acid form of simvastatin]
size of myocardial damage (ischemic damage+reperfusion damage; infarct size) ([2]; assessed 2.5 h after reperfusion): decreased
expression of cleaved caspase-3 [2, 8]: significantly reduced
mitochondrial potential (JC-1) [2, 8]: preserved
oxidative stress (8-hydroxyguanosine staining) [2, 8]: decreased
recruitment of neutrophils [2, 8]: limited
reduction of size of infarction (% of total LV wall) [3]: around 50%

CC(C)c1c(C(=O)Nc2ccccc2)c(-c2ccccc2)c(-c2ccc(F)cc2)n1CC[C@@H](O)C[C@@H](O)CC(=O)O [atorvastatin]
reduction in neutrophil myocardial infiltration [4]: 57%
CFABP ([5]; already at 30 min): significant reduction
IMA ([5]; already at 30 min): significant reduction
Myoglobin ([5]; already at 30 min): significant reduction
Percentage of reduction of CFABP ([5]; vs control): 60-75%
Percentage of reduction of IMA ([5]; vs control): 60-75%
Percentage of reduction of Myoglobin ([5]; vs control): 60-75%
IMA (Ischemic Modified Albumin) blood levels [6, 9]: significantly reduced
Myoglobin blood levels [6, 9]: significantly reduced
overall reduction of CFABP levels [6, 10]: more than 75%
overall reduction of IMA levels [6, 10]: more than 50%
overall reduction of myoglobin levels [6, 10]: more than 75%
ischemia-triggered increase in MCP-1 expression, gene level ([7]; PBMC): markedly attenuated
ischemia-triggered increase in MCP-1 expression, protein level ([7]; PBMC): markedly attenuated
TF PBMC expression (mRNA) [7, 11]: did not modify
TLR4 PBMC expression (mRNA) [7, 11]: did not modify
MCP-1 mRNA expression (MCP-1/CCL2; [12]): significantly reduced
MCP-1 protein expression (MCP-1/CCL2; [12]): significantly reduced
MCP-1 expression (MCP-1/CCL2; non-ischemic myocardial tissue): No changes
reduction in scar size (rat model for ischemia): 60%
total amount of RhoA protein in the ischemic myocardium (RhoA; 0.3 mg/kg i.v. at 15 min of ischemia, tissue at 90 min): not affected
RhoA activation in the ischemic myocardium (RhoA; single dose after the onset of ischemia, infarcted pigs): inhibits
total protein content of AMPK (AMPK; entire heart): No changes
levels of P-AMPK (AMPK; ischemic myocardium): significantly increased
levels of P-AMPK (AMPK; non-ischemic cardiac tissue): No changes
ischemia-induced eNOS activation (P-eNOS/eNOS) (eNOS): did not further enhance
levels of cleaved (active) caspase 3 (caspase-3; ischemic myocardium): reduced
total caspase-3 (caspase-3; myocardium): no changes
reduction of size of infarction (% of total LV wall) [3]: around 50%

CC(ONC(=O)c1cc(C(F)(F)F)cc(C(F)(F)F)c1)C(=O)Nc1ccc(Cl)cc1 (stereo not drawn) [CCG1423]
reduction of oxidative damage (8-OH-dG staining) within the ischemic myocardium [3]: 70%
reduction of size of infarction (% of total LV wall) [3]: around 50%
